Test results reported in US20120172359A1 (NOVARTIS AG, priority 2010, published 2012).
Where a name gives a salt, the structure may show the parent alone.

Each compound was assayed against Human BACE-1 (Homo sapiens, UniProt P56817) (assay: Test 1: Inhibition of Human BACE-1). Conditions: Test 1; recombinant BACE-1 (extracellular domain), acetate buffer pH 4.5, 1 hour with test compound at room temperature, fluorescence-quenched peptide substrate; read-out: Bace IC50.
Format: biochemical

Chain of Human BACE-1 (P56817 46-457 limits assumed): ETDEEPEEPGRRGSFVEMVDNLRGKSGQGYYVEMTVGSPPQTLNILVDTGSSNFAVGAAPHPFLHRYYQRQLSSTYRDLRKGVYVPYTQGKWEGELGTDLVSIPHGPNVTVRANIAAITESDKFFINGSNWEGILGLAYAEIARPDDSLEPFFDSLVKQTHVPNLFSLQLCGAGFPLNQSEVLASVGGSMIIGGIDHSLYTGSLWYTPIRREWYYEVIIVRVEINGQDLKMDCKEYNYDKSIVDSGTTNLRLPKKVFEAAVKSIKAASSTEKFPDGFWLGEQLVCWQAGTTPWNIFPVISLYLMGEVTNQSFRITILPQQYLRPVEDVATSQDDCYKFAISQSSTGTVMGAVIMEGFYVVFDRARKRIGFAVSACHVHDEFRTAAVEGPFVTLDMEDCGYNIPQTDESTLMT

Q: With `NC1=NC(CF)(c2cc(Cl)cc(NC(=O)c3ccc(Br)cn3)c2)COC1` (centres unmarked) [Example 32, 5-Bromo-pyridine-2-carboxylic acid [3-(5-amino-3-fluoromethyl-3,6-dihydro-2H-[1,4]oxazin-3-yl)-5-chloro-phenyl]-amide] as the compound, how does the IC50 read?
A: 1400 nM

Q: Which IC50 does the source give for `NC1=N[C@](CF)(c2cccc(NC(=O)c3ccc(Br)cn3)c2)COC1` [Example 33, 5-Bromo-pyridine-2-carboxylic acid [3-((R)-5-amino-3-fluoromethyl-3,6-dihydro-2H-[1,4]oxazin-3-yl)-phenyl]-amide] here?
A: 130 nM

Q: How did the IC50 turn out when `NC1=NC(c2cccc(NC(=O)c3ccc(Br)cn3)c2)(C(F)F)COC1` (centres unmarked) [Example 34, 5-Bromo-pyridine-2-carboxylic acid [3-(5-amino-3-difluoromethyl-3,6-dihydro-2H-[1,4]oxazin-3-yl)-phenyl]-amide hydrochloride] was run?
A: 560 nM

Q: `N#Cc1ccc(C(=O)Nc2cccc(C3(C(F)F)COCC(N)=N3)c2)nc1` (centres unmarked) [Example 36, 5-Cyano-pyridine-2-carboxylic acid [3-(5-amino-3-difluoromethyl-3,6-dihydro-2H-[1,4]oxazin-3-yl)-phenyl]-amide] was tested. Which IC50 did it give?
A: 350 nM

Q: With `Cc1cc(Br)cnc1C(=O)Nc1cccc(C2(C(F)F)COCC(N)=N2)c1` (centres unmarked) [Example 37, 5-Bromo-3-methyl-pyridine-2-carboxylic acid [3-(5-amino-3-difluoromethyl-3,6-dihydro-2H-[1,4]oxazin-3-yl)-phenyl]-amide] as the compound, how does the IC50 read?
A: 120 nM

Q: Which IC50 does the source give for `NC1=NC(c2cccc(NC(=O)c3ccc(C(F)(F)F)cn3)c2)(C(F)F)COC1` (centres unmarked) [Example 39, 5-Trifluoromethyl-pyridine-2-carboxylic acid [3-(5-amino-3-difluoromethyl-3,6-dihydro-2H-[1,4]oxazin-3-yl)-phenyl]-amide] here?
A: 780 nM

Q: With `NC1=NC(c2cccc(NC(=O)c3ncc(C(F)(F)F)cc3Cl)c2)(C(F)F)COC1` (centres unmarked) [Example 40, 3-Chloro-5-trifluoromethyl-pyridine-2-carboxylic acid [3-(5-amino-3-difluoromethyl-3,6-dihydro-2H-[1,4]oxazin-3-yl)-phenyl]amide] as the compound, how does the IC50 read?
A: 1000 nM

Q: Which IC50 does the source give for `Cc1cc(Cl)cnc1C(=O)Nc1cccc(C2(C(F)F)COCC(N)=N2)c1` (centres unmarked) [Example 41, 5-Chloro-3-methyl-pyridine-2-carboxylic acid [3-(5-amino-3-difluoromethyl-3,6-dihydro-2H-[1,4]oxazin-3-yl)-phenyl]-amide] here?
A: 350 nM

Q: `NC1=NC(c2cc(NC(=O)c3ccc(Br)cn3)ccc2F)(C(F)F)COC1` (centres unmarked) [Example 42, 5-Bromo-pyridine-2-carboxylic acid [3-(5-amino-3-difluoromethyl-3,6-dihydro-2H-[1,4]oxazin-3-yl)-4-fluoro-phenyl]-amide hydrochloride] was tested. Which IC50 did it give?
A: 56 nM

Q: With `NC1=NC(c2cc(NC(=O)c3ccc(Cl)cn3)ccc2F)(C(F)F)COC1` (centres unmarked) [Example 43, 5-Chloro-pyridine-2-carboxylic acid [3-(5-amino-3-difluoromethyl-3,6-dihydro-2H-[1,4]oxazin-3-yl)-4-fluoro-phenyl]-amide] as the compound, how does the IC50 read?
A: 62 nM

Q: How did the IC50 turn out when `Cc1cc(Cl)cnc1C(=O)Nc1ccc(F)c([C@]2(C(F)F)COCC(N)=N2)c1` [Example 44, 5-Chloro-3-methyl-pyridine-2-carboxylic acid [3-((R)-5-amino-3-difluoromethyl-3,6-dihydro-2H-[1,4]oxazin-3-yl)-4-fluoro-phenyl]-amide] was run?
A: 19 nM

Q: `Cc1cc(Br)cnc1C(=O)Nc1ccc(F)c([C@]2(C(F)F)COCC(N)=N2)c1` [Example 45, 5-Bromo-3-methyl-pyridine-2-carboxylic acid [3-((R)-5-amino-3-difluoromethyl-3,6-dihydro-2H-[1,4]oxazin-3-yl)-4-fluoro-phenyl]amide] was tested. Which IC50 did it give?
A: 16 nM

Q: With `NC1=N[C@@](c2cc(NC(=O)c3ncc(C(F)(F)F)cc3Cl)ccc2F)(C(F)F)COC1` [Example 46, 3-Chloro-5-trifluoromethyl-pyridine-2-carboxylic acid [3-((R)-5-amino-3-difluoromethyl-3,6-dihydro-2H-[1,4]oxazin-3-yl)-4-fluoro-phenyl]-amide] as the compound, how does the IC50 read?
A: 71 nM

Q: `NC1=N[C@@](c2cc(NC(=O)c3ccc(C(F)(F)F)cn3)ccc2F)(C(F)F)COC1` [Example 47, 5-Trifluoromethyl-pyridine-2-carboxylic acid [3-((R)-5-amino-3-difluoromethyl-3,6-dihydro-2H-[1,4]oxazin-3-yl)-4-fluoro-phenyl]-amide] was tested. Which IC50 did it give?
A: 56 nM

Q: With `Cc1cnc(C(=O)Nc2ccc(F)c([C@]3(C(F)F)COCC(N)=N3)c2)cn1` [Example 48, 5-Methyl-pyrazine-2-carboxylic acid [3-((R)-5-amino-3-difluoromethyl-3,6-dihydro-2H-[1,4]oxazin-3-yl)-4-fluoro-phenyl]-amide] as the compound, how does the IC50 read?
A: 550 nM

Q: How did the IC50 turn out when `COc1ccc(C(=O)Nc2ccc(F)c([C@]3(C(F)F)COCC(N)=N3)c2)nc1` [Example 49, 5-Methoxy-pyridine-2-carboxylic acid [3-((R)-5-amino-3-difluoromethyl-3,6-dihydro-2H-[1,4]oxazin-3-yl)-4-fluoro-phenyl]-amide] was run?
A: 50 nM

Q: `C[C@@]1(c2cc(Br)cc(NC(=O)c3ncc(Br)cn3)c2)COCC(N)=N1` [Example 51, 5-Bromo-pyrimidine-2-carboxylic acid [3-((R)-5-amino-3-methyl-3,6-dihydro-2H-[1,4]oxazin-3-yl)-5-bromo-phenyl]-amide hydrochloride] was tested. Which IC50 did it give?
A: 230 nM

Q: For `C[C@@]1(c2cc(Br)cc(NC(=O)c3ccc(Br)cn3)c2)COCC(N)=N1` [Example 52, 5-Bromo-pyridine-2-carboxylic acid [3-((R)-5-amino-3-methyl-3,6-dihydro-2H-[1,4]oxazin-3-yl)-5-bromo-phenyl]-amide], which IC50 is on record?
A: 180 nM

Q: For `C[C@@]1(c2cc(Br)cc(NC(=O)c3ccc(C#N)cn3)c2)COCC(N)=N1` [Example 53, 5-Cyano-pyridine-2-carboxylic acid [3-((R)-5-amino-3-methyl-3,6-dihydro-2H-[1,4]oxazin-3-yl)-5-bromo-phenyl]-amide], which IC50 is on record?
A: 380 nM

Q: For `Cc1cc(Br)cnc1C(=O)Nc1cc(Br)cc([C@]2(C)COCC(N)=N2)c1` [Example 55, 5-Bromo-3-methyl-pyridine-2-carboxylic acid [3-((R)-5-amino-3-methyl-3,6-dihydro-2H-[1,4]oxazin-3-yl)-5-bromo-phenyl]-amide], which IC50 is on record?
A: 84 nM

Q: `C[C@@]1(c2cc(Br)cc(NC(=O)c3ccc(Cl)cn3)c2)COCC(N)=N1` [Example 56, 5-Chloro-pyridine-2-carboxylic acid [3-((R)-5-amino-3-methyl-3,6-dihydro-2H-[1,4]oxazin-3-yl)-5-bromo-phenyl]-amide] was tested. Which IC50 did it give?
A: 101 nM

Q: `Cc1cnc(C(=O)Nc2cc(Br)cc([C@]3(C)COCC(N)=N3)c2)cn1` [Example 57, 5-Methyl-pyrazine-2-carboxylic acid [3-((R)-5-amino-3-methyl-3,6-dihydro-2H-[1,4]oxazin-3-yl)-5-bromo-phenyl]-amide] was tested. Which IC50 did it give?
A: 1700 nM

Q: `Cc1nc(C(=O)Nc2cc(Br)cc([C@]3(C)COCC(N)=N3)c2)c(C)o1` [Example 58, 2,5-Dimethyl-oxazole-4-carboxylic acid [3-((R)-5-amino-3-methyl-3,6-dihydro-2H-[1,4]oxazin-3-yl)-5-bromo-phenyl]amide] was tested. Which IC50 did it give?
A: 780 nM

Q: For `Cc1nc(C(=O)Nc2cc(Br)cc([C@]3(C)COCC(N)=N3)c2)co1` [Example 59, 2-Methyl-oxazole-4-carboxylic acid [3-((R)-5-amino-3-methyl-3,6-dihydro-2H-[1,4]oxazin-3-yl)-5-bromo-phenyl]-amide], which IC50 is on record?
A: 240 nM

Q: How did the IC50 turn out when `Cc1cnc(C(=O)Nc2ccc(F)c(C3(C)COCC(N)=N3)c2)cn1` (centres unmarked) [Example 61, 5-Methyl-pyrazine-2-carboxylic acid [3-(5-amino-3-methyl-3,6-dihydro-2H-[1,4]oxazin-3-yl)-4-fluoro-phenyl]-amide hydrochloride] was run?
A: 1970 nM

Q: How did the IC50 turn out when `CC1(c2cc(NC(=O)c3ccc(C#N)cn3)ccc2F)COCC(N)=N1` (centres unmarked) [Example 62, 5-Cyano-pyridine-2-carboxylic acid [3-(5-amino-3-methyl-3,6-dihydro-2H-[1,4]oxazin-3-yl)-4-fluoro-phenyl]-amide hydrochloride] was run?
A: 95 nM

Q: How did the IC50 turn out when `CC1(c2cc(NC(=O)c3ccc(C(N)=O)cn3)ccc2F)COCC(N)=N1` (centres unmarked) [Example 65, Pyridine-2,5-dicarboxylic acid 5-amide 2-{[3-(5-amino-3-methyl-3,6-dihydro-2H-[1,4]oxazin-3-yl)-4-fluoro-phenyl]-amide} hydrochloride] was run?
A: 1200 nM

Q: `C[C@@]1(c2cc(NC(=O)c3ccc(C#N)cn3)ccc2F)CO[C@@](C)(C(F)(F)F)C(N)=N1` [Example 73, 5-Cyano-pyridine-2-carboxylic acid [3-((3R,6R)-5-amino-3,6-dimethyl-6-trifluoro-methyl-3,6-dihydro-2H-[1,4]oxazin-3-yl)-4-fluoro-phenyl]-amide hydrochloride] was tested. Which IC50 did it give?
A: 26 nM

Q: With `COCCOc1cnc(C(=O)Nc2ccc(F)c([C@]3(C)CO[C@@](C)(C(F)(F)F)C(N)=N3)c2)cn1` [Example 74, 5-(2-Methoxy-ethoxy)-pyrazine-2-carboxylic acid [3-((3R,6R)-5-amino-3,6-dimethyl-6-trifluoromethyl-3,6-dihydro-2H-[1,4]oxazin-3-yl)-4-fluoro-phenyl]-amide hydrochloride] as the compound, how does the IC50 read?
A: 79 nM

Q: Which IC50 does the source give for `CC1(C)OC[C@](c2cc(NC(=O)c3ccc(C#N)cn3)ccc2F)(C(F)F)N=C1N` [Example 79, 5-Cyano-pyridine-2-carboxylic acid[3-(5-amino-3-difluoromethyl-6,6-dimethyl-3,6-dihydro-2H-[1,4]oxazin-3-yl)-4-fluoro-phenyl]-amide] here?
A: 120 nM

Q: With `CC1(C)OCC(c2cc(NC(=O)c3ccc(Br)cn3)ccc2F)(C(F)F)N=C1N` (centres unmarked) [Example 80, 5-Bromo-pyridine-2-carboxylic acid [3-(5-amino-3-difluoromethyl-6,6-dimethyl-3,6-dihydro-2H-[1,4]oxazin-3-yl)-4-fluoro-phenyl]-amide hydrochloride] as the compound, how does the IC50 read?
A: 74 nM

Q: For `NC1=NC(c2cc(NC(=O)c3ccc(Br)cn3)c(F)cc2F)(C(F)F)COC1` (centres unmarked) [Example 81, 5-Bromo-pyridine-2-carboxylic acid [5-(5-amino-3-difluoromethyl-3,6-dihydro-2H-[1,4]oxazin-3-yl)-2,4-difluoro-phenyl]-amide hydrochloride], which IC50 is on record?
A: 1100 nM
